# Measurements as given in patent US12497431B2, “Modified peptide fragments of Cav-1 protein and the use thereof in the treatment of fibrosis” (Rein Therapeutics, Inc., priority 2018, dated 2025).
# Non-standard residues stand in square brackets, D forms with d. Residues, ends and D or L forms follow the SMILES beside them. No end group written: not given here. Orn = NCCC[C@H](N)C(=O)O
# Tests used:
# [1] = Cav-1 peptide solubility in Tris Buffered Saline, pH 7.51 (absorbance at 600 nm); assay type: physicochemical; settings: for UV (Abs) after rest / UV (Abs) at dissolution: absorbance at 600 nm, 50 mg in 5 mL TBS pH 7.51; for UV (Abs) after rest: again after 10 minutes (APi2348 15 min, APi2352 5 min, APi2353 15 min, APi2345 only after 20 min); for UV (Abs) at dissolution: immediately after dissolution for insoluble peptides, after 10 minutes for soluble peptides
# Protocol: In order to determine which peptides may be most soluble in a liquid formulation, 50 mg of each Cav-1 peptide was dissolved in 5 mL of Tris Buffered Saline, pH 7.51. Each sample was vortexed to help the sample dissolve completely. The absorbance at 600 nm was measured immediately after dissolution of the peptides for insoluble peptides, or after 10 minutes for soluble peptides. Absorbance was measured again after 10 minutes for insoluble peptides except for samples APi2348, APi2352, APi2353 which were measured a second time at 15 minutes, 5 minutes, or 15 minutes after dissolution, respectively.
# [2] = tested on: Idiopathic Pulmonary Fibrosis (IPF) cell line 2051; experiment: Western blot of SMA and tubulin in IPF cells treated with Cav-1 peptides; assay type: cell-based; settings: 2 days treatment, 10 uM peptide (LTI-03 10 and 90 uM), ImageJ ratio (FIG. 2)
# Protocol: Cav-1 peptides were dissolved in DMSO to make 10 mM stock solutions. 10 mM stock solutions of each peptide were then diluted in HBSS to make 900 μM working stock solutions. The DMSO resuspended polypeptides as well as the working stocks were stored at −20 deg C. For culture media, working stocks were added to DMEM culture media to a final concentration of 10 μM of the Cav-1 peptide.
# Idiopathic Pulmonary Fibrosis (IPF) cell line 2051 was purchased and IPF cells from the fourth passage were seeded in 100 mm plates containing DMEM, 10% FBS, and 1% P/S. IPF cells were washed with 4 mL DMEM+1% P/S and serum starved overnight. Cells were then treated for 2 days with either 44 uL HBSS (negative control), 10 uM LTI-03 (SEQ ID NO: 2), 90 uM LTI-03 (positive control), 10 uM APi2350, 10 uM APi2354, 10 uM APi2355, 10 uM APi2356 or with 20 uL of DMSO (negative control).
# After 2 days of treatment, cells were washed once in cold, sterile HBSS. HBSS was removed, and 150 uL of lysis buffer with protease inhibitor cocktail was added to the cells. Cells were incubated with lysis buffer for 10 minutes. Cell lysates were scraped from the plates and collected. Cell lysates were then sonicated twice. Following sonication, the lysates were centrifuged at 13,000 RPM for 20 minutes. Lysates were then flash frozen in liquid nitrogen, thawed, vortexed, and centrifuged again at 13,000 RPM for 30 minutes. The supernatant was then collected and the pellet was discarded. The concentration of cell lysates was then determined by BCA assay.
# Western blots were performed to evaluate the presence the effects of treatments. Briefly, 12 ug of each lysate was run on a 10% polyacrylamide gel. The gel was then transferred to a membrane and washed. Primary antibodies against smooth muscle actin (SMA) and Tubulin Results of the western blot can be seen in FIG. 1. The treatment for each of the lysates in the pictured lanes are: 1: Untreated, 2: 10 μM LTI-03, 3: 90 μM LTI-03, 4: 10 μM APi2350, 5: 10 μM APi2354, 6: 10 μM APi 2355, 7: 10 μM APi2356, and 8: DMSO.
# Western blots were photographed and analyzed with ImageJ to determine a ratio of smooth muscle actin to tubulin (FIG. 2).
# [3] = tested on: AEC2 cells of end-stage IPF precision cut lung slices; experiment: Lysotracker staining of AEC2 cells in end-stage IPF precision cut lung slices; assay type: cell-based; settings: end-stage IPF PCLS, daily treatment, staining on days 1, 2, 3, 5, and 7; 10, 100, or 500 μM
# Source text: (§1) To assess the effect of Cav-1 peptide APi2355 (SEQ ID NO: 8) on AEC2 cell viability, surgical biopsies were obtained for the preparation of non-specific interstitial pneumonia precision cut lung slices (PCLS). One individual with non-specific interstitial pneumonia (NSIP) and another with end-stage IPF were processed. Lysotracker staining, which stains acidic compartments in live cells and selectively accumulates in the lamellar bodies of lung AEC2 cells (Van der Velden et al., 2013), was performed. Cav-1 peptide was suspended in DMEM/5% FBS, and PCLS slices (n=5 replicates/treatment group) were treated with 10, 100, or 500 μM LTI-03 or APi2355 (Var 55). Lysotracker staining (Green DND-26, Promega) was performed on NSIP PCLS 48 h after a single treatment. […] In addition, lysotracker staining (Red DND-99, Promega) was performed on end-stage IPF on days 1, 2, 3, 5, and 7 following daily treatment with LTI-03 or APi2355.
# [4] = tested on: AEC2 cells of non-specific interstitial pneumonia (NSIP) precision cut lung slices; experiment: Lysotracker staining of AEC2 cells in NSIP precision cut lung slices; assay type: cell-based; settings: NSIP PCLS, 48 h after a single treatment with 10, 100, or 500 μM
# Source text: as §1
# [5] = TBS pH 7.51, compared to other tested peptides
UV (Abs) after rest [1],UV (Abs) at dissolution [1],Compound,also measured
3.000,3.000,"Ac-DSGKASFTTFTVTK-NH2 [APi2353, Ac-DSGKASFTTFTVTK-NH2]",–
–,2.293,Ac-OASFTTFTVTOS-NH2 [APi2357],–
2.398,2.468,"H-DSGKASFTTFTVTK-NH2 [APi2352, DSGKASFTTFTVTK-NH2]",–
0.000,0.000,"CC(=O)N[C@H](C)C(=O)N[C@H](C)C(=O)N[C@@H](CCC(=O)O)C(=O)NCC(=O)N[C@@H](CCCCN)C(=O)N[C@@H](C)C(=O)N[C@@H](CO)C(=O)N[C@@H](Cc1ccccc1)C(=O)N[C@H](C(=O)N[C@H](C(=O)N[C@@H](Cc1ccccc1)C(=O)N[C@H](C(=O)N[C@H](C(=O)N[C@H](C(=O)N[C@@H](CCCCN)C(=O)NCC(=O)N[C@@H](CO)C(=O)N[C@H](C)C(=O)N[C@H](C)C(N)=O)[C@@H](C)O)C(C)C)[C@@H](C)O)[C@@H](C)O)[C@@H](C)O [APi2355, Ac-aaEGKASFTTFTVTKGSaa-NH2] (Ac-[dA][dA]EGKASFTTFTVTKGS[dA][dA]-NH2)","expression of SMA relative to tubulin [2]: increased the expression of SMA relative to tubulin; AEC2 cell viability (lysotracker staining) [3]: observed out to day 3; AEC2 cell viability (lysotracker staining) [4]: strong dose-dependent increase; solubility at pH 7.51 (in words) [1, 5]: increased solubility"
1.437,2.409,"H-FTTFTVT-NH2 [APi2344, FTTFTVT-NH2]",–
–,0.846,"CC(C)[C@H](NC(=O)[C@@H](NC(=O)[C@H](Cc1ccccc1)NC(=O)[C@@H](NC(=O)[C@@H](NC(=O)[C@H](Cc1ccccc1)NC(=O)[C@H](CO)NC(=O)[C@H](C)NC(=O)[C@@H](N)CCCN)[C@@H](C)O)[C@@H](C)O)[C@@H](C)O)C(=O)N[C@H](C(=O)N[C@@H](CCCCN)C(N)=O)[C@@H](C)O [APi2348, OASFTTFTVTK-NH2] (H-[Orn]ASFTTFTVTK-NH2)",–
1.058,–,"H-FTTFTVTK-NH2 [APi2345, FTTFTVTK-NH2]","solubility at pH 7.51 (in words) [1, 5]: dissolution was incomplete"
2.377,2.523,"Ac-KASFTTFTVTKGS-NH2 [APi2351, Ac-KASFTTFTVTKGS-NH2]",–
2.284,2.347,"Ac-KASFTTFTVTK-NH2 [APi2347, Ac-KASFTTFTVTK-NH2]",–
1.622,1.648,"H-KASFTTFTVTK-NH2 [APi2346, KASFTTFTVTK-NH2]",–
1.827,1.870,Ac-OASFTTFTVTK-NH2 [APi2349],–
0.007,0.008,"CC(C)[C@H](NC(=O)[C@@H](NC(=O)[C@H](Cc1ccccc1)NC(=O)[C@@H](NC(=O)[C@@H](NC(=O)[C@H](Cc1ccccc1)NC(=O)[C@H](CO)NC(=O)[C@H](C)NC(=O)[C@H](CCCCN)NC(=O)CNC(=O)[C@H](CCC(=O)O)NC(=O)[C@@H](C)NC(=O)[C@@H](C)N)[C@@H](C)O)[C@@H](C)O)[C@@H](C)O)C(=O)N[C@H](C(=O)N[C@@H](CCCCN)C(=O)NCC(=O)N[C@@H](CO)C(=O)N[C@H](C)C(=O)N[C@H](C)C(N)=O)[C@@H](C)O [APi2354, aaEGKASFTTFTVTKGSaa-NH2] (H-[dA][dA]EGKASFTTFTVTKGS[dA][dA]-NH2)","expression of SMA relative to tubulin [2]: increased the expression of SMA relative to tubulin; solubility at pH 7.51 (in words) [1, 5]: increased solubility"
–,–,KASFTTFTVTKGS-NH2 [APi2350],expression of SMA relative to tubulin [2]: increased the expression of SMA relative to tubulin; solubility at pH 7.51 (in words) ([1]; pH 7.51): increased solubility

Compound,UV (Abs) after rest [1],UV (Abs) at dissolution [1],also measured
"OASFTTFTVTOS-NH2 ([Orn]ASFTTFTVT[Orn]S-NH2; N-terminus assumed; SMILES CC(C)[C@H](NC(=O)[C@@H](NC(=O)[C@H](Cc1ccccc1)NC(=O)[C@@H](NC(=O)[C@@H](NC(=O)[C@H](Cc1ccccc1)NC(=O)[C@H](CO)NC(=O)[C@H](C)NC(=O)[C@@H](N)CCCN)[C@@H](C)O)[C@@H](C)O)[C@@H](C)O)C(=O)N[C@H](C(=O)N[C@@H](CCCN)C(=O)N[C@@H](CO)C(N)=O)[C@@H](C)O) [APi2356, O = Ornithine]",–,0.001,expression of SMA relative to tubulin [2]: increased the expression of SMA relative to tubulin; solubility at pH 7.51 (in words) ([1]; pH 7.51): increased solubility
